Results published in ChEMBL document CHEMBL1201862, “PubChem BioAssay data set” (2004).
Values joined by “and” are separate entries in the source; they are usually repeats but may differ in a detail not shown here. Equal values may be shown once.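 Cultured in 96-well plates, cells were exposed to test compound for 48 hours across five concentrations. GI50 = concentration required for 50% inhibition of growth.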 Active and inactive are the calls of the source. No stated cut-off is given here; in the data, active = GI50 up to about 1.1 µM and inactive = higher.

What was measured:
Test in all cases: growth of human tumour cells (NCI), 48 h
[1] = tested on: LXFL 529
[2] = tested on: DMS-273
[3] = tested on: HOP-18
[4] = tested on: RXF 631
[5] = tested on: KM-20L2
[6] = tested on: M19-MEL
[7] = tested on: SNB-78
[8] = tested on: BT-549
[9] = tested on: XF498

Compound	GI50 [1]	GI50 [2]	GI50 [5]	GI50 [6]	GI50 [7]	GI50 [8]	also measured
COc1ccc(C(=O)CC(=O)C(=O)Nc2ccc(C)c(C)c2)cc1	> 64.9 µM (inactive)	40 µM (inactive)	> 77.1 µM (inactive)	> 100 µM (inactive)	> 100 µM (inactive)	–	GI50 [3]: > 70.8 µM (inactive); GI50 [4]: > 68.2 µM (inactive)
OCCCNCc1ccccn1	–	–	–	–	–	> 100 µM (inactive)	–
CN(CC(=O)O)Cc1c[nH]c2ccccc12	–	–	–	–	–	> 100 µM (inactive)	–
N#CC[N+]1(Cc2ccccn2)CCCC1.O=S(=O)([O-])c1ccccc1	–	–	–	–	–	> 100 µM (inactive)	–
O=C(c1no[n+]([O-])c1C(=O)c1csc2ccccc12)c1csc2ccccc12	–	–	–	–	–	6.55 µM (inactive)	–
CC1=NN(C(=O)CC(=O)Nc2cccc(Cl)c2)C(=O)C1/N=N/c1ccc(S(N)(=O)=O)cc1 (stereo unspecified)	> 100 µM (inactive)	> 100 µM (inactive)	> 100 µM (inactive)	> 100 µM (inactive)	> 100 µM (inactive)	–	GI50 [3]: > 100 µM (inactive); GI50 [9]: > 100 µM (inactive)
CC(=O)c1c(SCCN2CCOCC2)n(-c2ccccc2)c(=S)n(-c2ccccc2)c1=O	–	–	–	–	–	21.1 µM (inactive)	–
COC(=O)CCCCC/C(=C\C(=O)C(Cl)(Cl)Cl)OC	–	–	–	–	–	38.9 µM (inactive)	–
CCN(CC)CCCn1cnc2ncccc2c1=O	> 100 µM (inactive)	> 100 µM (inactive)	–	> 100 µM (inactive)	> 100 µM (inactive)	–	–
COc1ccc(OC(C)C(=O)O)c2c1CCCC2=O (stereo unspecified)	> 100 µM (inactive)	> 100 µM (inactive)	< 0.01 µM (active)	> 100 µM (inactive)	> 100 µM (inactive)	–	GI50 [9]: > 100 µM (inactive)
C/C(=N/OCCC(=O)O)C1CC1	> 100 µM (inactive)	> 100 µM (inactive)	> 100 µM (inactive)	> 100 µM (inactive)	> 100 µM (inactive)	–	GI50 [3]: > 100 µM (inactive); GI50 [9]: > 100 µM (inactive)
O=C(c1ccccc1)c1nnn(Cc2ccccc2Cn2nnc(C(=O)c3ccccc3)c2C(=O)c2ccccc2)c1C(=O)c1ccccc1	> 100 µM (inactive)	> 100 µM (inactive)	> 100 µM (inactive)	> 100 µM (inactive)	> 100 µM (inactive)	–	GI50 [3]: > 100 µM (inactive)
O=C(c1ccccc1)c1ccc(N2C(=O)/C(=C/c3ccccc3S)N=C2c2ccccc2)c(N2C(=O)/C(=C/c3ccccc3S)N=C2c2ccccc2)c1	–	–	–	–	–	49.3 µM (inactive)	–
O=c1c(Nc2ccccc2)cn(CCOc2ccccc2)c(=O)n1CCOc1ccccc1	–	–	–	–	–	20.8 µM (inactive)	–
COc1ccc(-c2c(C3=NCCCN3)nnn2-c2ccc([N+](=O)[O-])cc2)cc1	> 100 µM (inactive)	> 100 µM (inactive)	> 100 µM (inactive)	> 100 µM (inactive)	> 100 µM (inactive)	–	GI50 [3]: > 100 µM (inactive)
CC(C)=CCSC1CC2C(CC1(C)O)C2(C)C (stereo unspecified)	17.3 µM (inactive) and 14 µM (inactive)	15.8 µM (inactive) and 9.98 µM (inactive)	15.7 µM (inactive) and 19.1 µM (inactive)	–	23.4 µM (inactive) and 12 µM (inactive)	–	GI50 [9]: 4.84 µM (inactive) and 4.62 µM (inactive)
Cc1cc(=O)[nH]c(-n2[nH]c3c(c2=O)CCCC3)n1	–	–	–	–	–	> 100 µM (inactive)	–
O=c1c2cc(S(=O)(=O)Nc3ccccc3Cl)ccc2ncn1NS(=O)(=O)c1ccc(Br)cc1	–	–	–	–	–	> 37.5 µM (inactive)	–
COC1C(OC(=S)Nc2ccccc2)c2ccccc2N1C(C)=O (stereo unspecified)	44.4 µM (inactive)	85.3 µM (inactive)	57.4 µM (inactive)	> 100 µM (inactive)	> 100 µM (inactive)	–	GI50 [3]: > 100 µM (inactive); GI50 [9]: > 100 µM (inactive)
Nc1cccc(/C=C/CN2CCN(CCOC(c3ccccc3)c3ccccc3)CC2)c1	–	–	–	–	–	16.1 µM (inactive)	–
O=[N+]([O-])c1cccc([N+](=O)[O-])c1S(=O)(=O)c1ccccc1	–	–	–	–	–	3.08 µM (inactive)	–
Cc1ncc(CO)c(CN)c1O	–	–	–	–	–	> 100 µM (inactive)	–
COc1cc2c(cc1OC)C(SC)C(=O)N(Cc1cccc(OC)c1OC)CC2 (stereo unspecified)	2.84 µM (inactive)	0.553 µM (active)	1.19 µM (inactive)	1.2 µM (inactive)	0.359 µM (active)	0.755 µM (active)	GI50 [3]: 1.49 µM (inactive)
CSc1nnc(SC)nn1	–	–	–	–	–	16 µM (inactive)	–
O=c1c2ncn(C3CCCCO3)c2n(-c2ccccc2)c(=S)n1-c1ccccc1 (stereo unspecified)	–	–	–	–	–	23 µM (inactive)	–
Cn1/c(=N\S(=O)(=O)c2ccccc2)[nH]c2ccccc21	–	–	–	–	–	> 100 µM (inactive)	–
O=C(O)c1ccc(C(O)(c2ccccc2)c2ccccc2)cc1	–	–	–	–	–	> 100 µM (inactive)	–
COc1ccc2c(c1)[n+]([O-])c(-c1ccccc1Cl)c(N)[n+]2[O-]	55.3 µM (inactive)	55.6 µM (inactive)	38.8 µM (inactive)	69.8 µM (inactive)	> 100 µM (inactive)	–	GI50 [3]: > 100 µM (inactive); GI50 [4]: 37.4 µM (inactive)
